These results are taken from patent US20240059677A1, “SUBSTITUTED PYRIMIDINE DERIVATIVES AS NICOTINIC ACETYLCHOLINESTERASE RECEPTOR ALPHA 6 MODULATOR” (priority 2020, published 2024).

A word on the IC50: it is the point on the concentration scale where inhibition reaches its midpoint.

For one test, the target named is T1, human nAChRα6-α3 chimera, in addition to β2 and β3^V273S subunits (Homo sapiens, UniProt P32297+Q15825).
T1 construct: expressed in transfected cells
T1 sequence (Q05901 25-458 V273S): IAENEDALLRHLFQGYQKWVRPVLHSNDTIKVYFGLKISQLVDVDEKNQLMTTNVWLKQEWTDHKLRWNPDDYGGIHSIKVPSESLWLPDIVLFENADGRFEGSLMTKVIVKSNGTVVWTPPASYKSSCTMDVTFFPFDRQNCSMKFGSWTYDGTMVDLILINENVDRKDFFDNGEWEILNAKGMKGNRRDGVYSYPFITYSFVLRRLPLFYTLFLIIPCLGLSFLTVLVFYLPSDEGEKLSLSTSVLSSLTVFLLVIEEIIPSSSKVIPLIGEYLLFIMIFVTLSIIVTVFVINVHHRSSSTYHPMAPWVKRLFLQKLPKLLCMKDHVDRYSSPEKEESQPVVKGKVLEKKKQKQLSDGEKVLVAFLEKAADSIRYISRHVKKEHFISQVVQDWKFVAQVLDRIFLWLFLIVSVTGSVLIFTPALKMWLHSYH
T1 sequence (P17787 26-502, stated change not applied, further chain): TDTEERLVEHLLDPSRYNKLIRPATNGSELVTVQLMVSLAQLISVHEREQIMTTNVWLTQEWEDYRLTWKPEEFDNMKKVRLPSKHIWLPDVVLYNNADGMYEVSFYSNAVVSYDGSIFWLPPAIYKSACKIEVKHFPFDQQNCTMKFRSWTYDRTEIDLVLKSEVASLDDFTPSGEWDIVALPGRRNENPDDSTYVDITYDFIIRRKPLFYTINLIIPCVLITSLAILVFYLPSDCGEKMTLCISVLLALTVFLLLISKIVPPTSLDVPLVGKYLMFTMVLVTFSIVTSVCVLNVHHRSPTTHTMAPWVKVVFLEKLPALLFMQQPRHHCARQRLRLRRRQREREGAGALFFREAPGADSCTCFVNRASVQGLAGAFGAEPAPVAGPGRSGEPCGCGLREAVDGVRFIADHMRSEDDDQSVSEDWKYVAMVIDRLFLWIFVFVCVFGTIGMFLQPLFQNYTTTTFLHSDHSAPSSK
T1 sequence (Q15825+P32297 fused with the stated changes): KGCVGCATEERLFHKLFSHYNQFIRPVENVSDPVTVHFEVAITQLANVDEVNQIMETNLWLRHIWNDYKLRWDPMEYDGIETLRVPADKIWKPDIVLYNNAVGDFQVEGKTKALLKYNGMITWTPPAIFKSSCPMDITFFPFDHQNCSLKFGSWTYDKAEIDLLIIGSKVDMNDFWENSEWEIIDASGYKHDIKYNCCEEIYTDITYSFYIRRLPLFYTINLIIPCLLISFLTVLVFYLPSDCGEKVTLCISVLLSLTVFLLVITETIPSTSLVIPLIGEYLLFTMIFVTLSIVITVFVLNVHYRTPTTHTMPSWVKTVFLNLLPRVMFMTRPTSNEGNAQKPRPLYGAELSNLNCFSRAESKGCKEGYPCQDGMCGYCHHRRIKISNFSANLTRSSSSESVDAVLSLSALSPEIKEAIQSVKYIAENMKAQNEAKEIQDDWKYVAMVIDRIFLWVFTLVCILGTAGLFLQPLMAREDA
As to the kind of experiment: fluorescence-based calcium assay: inhibition of nicotine stimulated nAChRα6 activity (FLIPR). Particulars: HEK cell line stably expressing the receptor; 10 min pre-incubation, nicotine EC80; 10-point curve, duplicate wells; read-out: IC50. Put shortly: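 HEK cells stably expressing the human α6-α3 chimera with β2 and β3^V273S were loaded with calcium dye at 30° C. Compounds were pre-incubated for 10 min before nicotine at EC80, and the fluorescence change was read on a FLIPR. Ten-point half-log concentration-response, duplicate wells.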
On to `Cc1nc(NC[C@@H]2CCCN2CC(F)(F)F)ncc1-c1ccc(F)cc1F` [Example 95b, (S)-5-(2,4-difluorophenyl)-4-methyl-N-((1-(2,2,2-trifluoroethyl)pyrrolidin-2-yl)methyl)pyrimidin-2-amine], for which the concentration for half-maximal inhibition (IC50) worked out at 0.07 µM.

Take `COc1ccc(-c2cnc(NC3CCCOC3)nc2C)c(F)c1` (stereo not shown) [Example 46, 5-(2-fluoro-4-methoxyphenyl)-4-methyl-N-(tetrahydro-2H-pyran-3-yl) pyrimidin-2-amine]: the IC50 was 2.18 µM.

Regarding `Cc1nc(NC2CCCN(C(C)C)C2)ncc1-c1ccc(F)cc1F` (stereo not shown) [Example 72, 5-(2,4-difluorophenyl)-N-(1-isopropylpiperidin-3-yl)-4-methyl-pyrimidin-2-amine], the IC50 turned out to be 0.052 µM.

With `COc1ccc(-c2nnc(NC3CCCN(C(C)C)C3)nc2C)c(F)c1` (single isomer, unassigned) [Example 76a, 6-(2-fluoro-4-methoxyphenyl)-N-(1-isopropylpiperidin-3-yl)-5-methyl-1,2,4-triazin-3-amine], the half-inhibitory concentration (IC50) is 0.118 µM.

On to `Cc1nc(NCC2CCC(C)N2C)ncc1-c1ccc(C(F)(F)F)cc1F` (single isomer, unassigned) [Example 138d, N-(((2*S,5*R)-1,5-dimethylpyrrolidin-2-yl)methyl)-5-(2-fluoro-4-(trifluoromethyl)phenyl)-4-methyl-pyrimidin-2-amine], for which the IC50 was 0.025 µM.

With `Cc1nc(NCC[C@H]2CCCN2C)ncc1-c1ccc(C(F)(F)F)cc1F` [Example 106a, (R)-5-(2-fluoro-4-(trifluoromethyl)phenyl)-4-methyl-N-(2-(1-methylpyrrolidin-2-yl)ethyl)pyrimidin-2-amine], the half-maximal inhibitory concentration (IC50) came out at 0.105 µM.

For `COc1ccc(-c2cnc(NC3CCOCC3)nc2C)c(F)c1` [Example 45, 5-(2-fluoro-4-methoxyphenyl)-4-methyl-N-(tetrahydro-2H-pyran-4-yl) pyrimidin-2-amine], the half-maximal inhibitory concentration (IC50) stood at 1.31 µM.

In the case of `COc1ccc(-c2nnc(NCC3CCCN3C)nc2C)c(F)c1` (single isomer, unassigned) [Example 54b, 6-(2-fluoro-4-methoxyphenyl)-5-methyl-N-((1-methylpyrrolidin-2-yl)methyl)-1,2,4-triazin-3-amine], the half-inhibitory concentration (IC50) was found to be 0.442 µM.

For `Cc1nc(NC[C@H]2CCCN2)ncc1-c1ccc(C(F)(F)F)cc1F` [Example 102, (R)-5-(2-fluoro-4-(trifluoromethyl)phenyl)-4-methyl-N-(pyrrolidin-2-ylmethyl)pyrimidin-2-amine], the IC50 was 0.005 µM.

As for `COc1ccc(-c2cnc(NC3CCC(N(C)C)C3)nc2C)c(F)c1` (single isomer, unassigned) [Example 44a, N^1-(5-(2-fluoro-4-methoxyphenyl)-4-methyl-pyrimidin-2-yl)-N^3,N^3-dimethylcyclopentane-1,3-diamine], the IC50 came to 0.076 µM.

Take `Cc1nc(NCC2COCCN2C)ncc1-c1ccc(F)cc1F` (single isomer, unassigned) [Example 79b, 5-(2,4-difluorophenyl)-4-methyl-N-((4-methylmorpholin-3-yl)methyl) pyrimidin-2-amine]: the IC50 came out at 0.296 µM.

Regarding `COc1ccc(F)c(-c2cnc(NCC3COCCN3C)nc2C)c1` (stereo not shown) [Example 61, 5-(2-fluoro-5-methoxyphenyl)-4-methyl-N-((4-methylmorpholin-3-yl)methyl)pyrimidin-2-amine], the IC50 came to 0.533 µM.

As for `Cc1nc(NC2CCN3CCCC23)ncc1-c1ccc(OC(F)(F)F)cc1F` (single isomer, unassigned) [Example 97b, N-(5-(2-fluoro-4-(trifluoromethoxy)phenyl)-4-methyl-pyrimidin-2-yl)hexahydro-1H-pyrrolizin-1-amine], the IC50 was 0.152 µM.

Regarding `CN1CCCCC1CNc1ncc(-c2ccc(F)cc2)cn1` (stereo not shown) [Example 8, 5-(4-fluorophenyl)-N-((1-methylpiperidin-2-yl)methyl)pyrimidin-2-amine], the IC50 turned out to be 0.286 µM.

For `Cc1nc(NC[C@H]2CCCN2C)ncc1-c1ccc(OC(F)(F)F)cc1F` [Example 93a, (R)-5-(2-fluoro-4-(trifluoromethoxy)phenyl)-4-methyl-N-((1-methylpyrrolidin-2-yl)methyl)pyrimidin-2-amine], the IC50 was 0.05 µM.

`Cc1nc(NC[C@@H]2CN(C)CCO2)ncc1-c1ccc(C(F)(F)F)cc1F` (single isomer, unassigned) [Example 108a]: the IC50 stood at 0.086 µM.

In the case of `[2H]C([2H])([2H])N1CCCC1CNc1ncc(-c2ccc(F)cc2F)c(C)n1` (stereo not shown) [Example 87], the 50% inhibitory concentration (IC50) turned out to be 0.045 µM.

For the compound `Cc1nc(NC2CCN(C)C2)ncc1-c1ccc(F)cc1F` (stereo not shown) [Example 29, 5-(2,4-difluorophenyl)-4-methyl-N-(1-methylpyrrolidin-3-yl)pyrimidin-2-amine], the 50% inhibitory concentration (IC50) is 0.095 µM.

Regarding `Cc1nc(NC[C@@H]2CCCN2)ncc1-c1ccc(C(F)(F)F)cc1F` [Example 103, (S)-5-(2-fluoro-4-(trifluoromethyl)phenyl)-4-methyl-N-(pyrrolidin-2-ylmethyl)pyrimidin-2-amine], the IC50 amounted to 0.04 µM.

For the compound `Cc1nc(NC[C@H]2CCCN2)ncc1-c1ccc(F)cc1F` [Example 94a, (R)-5-(2,4-difluorophenyl)-4-methyl-N-(pyrrolidin-2-ylmethyl)pyrimidin-2-amine], the half-maximal inhibitory concentration (IC50) is 0.005 µM.

As for `COc1ccc(-c2nnc(NCC3CCCCN3C)nc2C)c(F)c1` (stereo not shown) [Example 26, 6-(2-fluoro-4-methoxyphenyl)-5-methyl-N-((1-methylpiperidin-2-yl)methyl)-1,2,4-triazin-3-amine], the half-inhibitory concentration (IC50) worked out at 0.156 µM.

As to `Cc1nc(NCCC2CCCN2C)ncc1-c1ccccc1` (stereo not shown) [Example 1, 4-methyl-N-(2-(1-methylpyrrolidin-2-yl)ethyl)-5-phenylpyrimidin-2-amine], the IC50 stood at 0.048 µM.

Consider `Cc1nc(NC[C@@]2(C)CCCN2)ncc1-c1ccc(C(F)(F)F)cc1F` [Example 135, (R)-5-(2-fluoro-4-(trifluoromethyl)phenyl)-4-methyl-N-((2-methyl-pyrrolidin-2-yl)methyl)pyrimidin-2-amine], for which the IC50 worked out at 0.07 µM.

Turning to `Cc1nc(N[C@H]2CC[C@H](N)C2)ncc1-c1ccc(C(F)(F)F)cc1F` [Example 111, (1S,3S)—N^3-(5-(2-fluoro-4-(trifluoromethyl)phenyl)-4-methyl-pyrimidin-2-yl)cyclopentane-1,3-diamine], the half-maximal inhibitory concentration (IC50) was determined as 0.09 µM.

Take `Cc1nc(N[C@H]2C[C@H]3CC[C@@H](C2)N3)ncc1-c1ccc(C(F)(F)F)cc1F` [Example 121, (1R,3s,5S)—N-(5-(2-fluoro-4-(trifluoromethyl)phenyl)-4-methyl-pyrimidin-2-yl)-8-azabicyclo[3.2.1]octan-3-amine]: the 50% inhibitory concentration (IC50) is 0.191 µM.

In the case of `Cc1nc(N[C@@H]2CCNC2)ncc1-c1ccc(C(F)(F)F)cc1F` [Example 110, (R)-5-(2-fluoro-4-(trifluoromethyl)phenyl)-4-methyl-N-(pyrrolidin-3-yl)pyrimidin-2-amine], the IC50 was 0.054 µM.

With `COc1ccc(-c2cnc(NCC3CCCO3)nc2C)c(Cl)c1` (stereo not shown) [Example 47, 5-(2-chloro-4-methoxyphenyl)-4-methyl-N-((tetrahydrofuran-2-yl)methyl) pyrimidin-2-amine], the IC50 is 1.25 µM.

In the case of `COc1ccc(-c2cnc(NCC3COCCN3C)nc2C)c(Cl)c1` (stereo not shown) [Example 62, 5-(2-chloro-4-methoxyphenyl)-4-methyl-N-((4-methylmorpholin-3-yl)methyl)pyrimidin-2-amine], the half-inhibitory concentration (IC50) was found to be 0.064 µM.

Regarding `Cc1nc(NC2CCN(C(C)C)CC2)ncc1-c1ccc(OC(F)(F)F)cc1F` [Example 88, 5-(2-fluoro-4-(trifluoromethoxy)phenyl)-N-(1-isopropylpiperidin-4-yl)-4-methyl-pyrimidin-2-amine], the concentration for half-maximal inhibition (IC50) was determined as 0.149 µM.

For the compound `CCN1CCC[C@@H](Nc2ncc(-c3ccc(F)cc3F)c(C)n2)C1` (single isomer, unassigned) [Example 78a], the concentration for half-maximal inhibition (IC50) was determined as 0.061 µM.

In the case of `Cc1nc(NC(C)[C@@H]2CCCN2)ncc1-c1ccc(C(F)(F)F)cc1F` (single isomer, unassigned) [Example 130b, 5-(2-fluoro-4-(trifluoromethyl)phenyl)-4-methyl-N-((1*S)-1-((2S)-pyrrolidin-2-yl)ethyl)pyrimidin-2-amine], the IC50 is 0.049 µM.

As for `Cc1nc(NCC2CCCN2C)nnc1-c1ccc(F)cc1F` (single isomer, unassigned) [Example 74a, 6-(2,4-difluorophenyl)-5-methyl-N-((1-methylpyrrolidin-2-yl)methyl)-1,2,4-triazin-3-amine], the IC50 is 0.693 µM.

Turning to `CN1CCC(Nc2ncc(-c3ccc(F)cc3F)c(C#N)n2)CC1` [Example 66, 5-(2,4-difluorophenyl)-2-((1-methylpiperidin-4-yl)amino)pyrimidine-4-carbonitrile], the half-inhibitory concentration (IC50) came to 0.094 µM.

With `COc1ccc(-c2cnc(NCC3COCCN3C)nc2C)c(F)c1` (stereo not shown) [Example 32, 5-(2-fluoro-4-methoxyphenyl)-4-methyl-N-((4-methylmorpholin-3-yl)methyl)pyrimidin-2-amine], the IC50 stood at 0.099 µM.

Regarding `CN1CCCC1CCNc1ncc(-c2ccccc2)cn1` (stereo not shown) [Example 2, N-(2-(1-methylpyrrolidin-2-yl)ethyl)-5-phenylpyrimidin-2-amine], the IC50 amounted to 0.302 µM.

For `COc1ccc(-c2cnc(NC3CCCC(OC)C3)nc2C)c(F)c1` (single isomer, unassigned) [Example 53a, 5-(2-fluoro-4-methoxyphenyl)-N-(3-methoxycyclohexyl)-4-methyl-pyrimidin-2-amine], the IC50 was determined as 1.24 µM.

Staying with this test, now noted: IC50 (μM), HEK cell line stably expressing the receptor; 10 min pre-incubation, nicotine EC80; 10-point curve, duplicate wells.
For `Cc1nc(NC[C@@]2(C)CCCN2C)ncc1-c1ccc(C(F)(F)F)cc1F` [Example 137, (R)—N-((1,2-dimethylpyrrolidin-2-yl)methyl)-5-(2-fluoro-4-(trifluoromethyl)phenyl)-4-methyl-pyrimidin-2-amine], the concentration for half-maximal inhibition (IC50) worked out at 0.11 µM.
